Assays:
[1] = test system: adult patients (aged 18-64 years) with TRD; test: Severity of recurrent clinician-reported AEs (0 no AE, 1 mild, 2 moderate, 3 severe); assay type: in vivo, human
Method: Patients were monitored for >90 minutes after ESK administration at each treatment session, after which time they could leave the clinical site at the clinician's discretion. AEs were monitored and reported, and safety assessments, including clinical laboratory tests and physical examinations, were conducted throughout the study. Clinician-reported AEs were categorized as mild, moderate, or severe based on clinical judgement (Table 1).
(§1) This analysis included any treatment sessions in which patients received ESK (either open-label or blinded). The occurrence and severity of AEs were assessed within the following timeframes: Month 1 (Week 1 and Weeks 2-4), Month 2 (Weeks 5-8), Months 3-6 and Months 6-12. Severity of clinician-reported AEs were scored as 0 (no AE), 1 (mild), 2 (moderate), and 3 (severe). To examine AEs in individual patients over time, only patients who received at least one ESK dose in the following period were included in the analyses of each respective period. Thus, patient data were retained in (i) Week 1 if the patient received ≥1 ESK dose in Weeks 2-4, (ii) Weeks 2-4 if the patient received ≥1 ESK dose in Weeks 5-8, (iii) Weeks 5-8 if the patient received ≥1 ESK dose in Months 3-6, and (iv) Months 3-6 if the patient received ≥1 ESK dose in Months 6-12.
Week 1 and Week 4 were set a priori as index weeks because they are the beginning and end of the induction period. Frequencies and maximum-reported severities of AEs reported during these index weeks served as stratifying variables by which to examine recurrence and severities of AE recurrences in future timeframes.

[2] = test system: adult patients (aged 18-64 years) with TRD; test: Measure-based increased blood pressure (abnormal elevation in BP); assay type: in vivo, human
Method: Vital signs, the Clinician-Administered Dissociative States Scale (CADSS), and the Modified Observer's Assessment of Alertness/Sedation (MOAA/S) were assessed at baseline and all treatment sessions (predose, and at 40 minutes, 1 hour [vital signs only unless spontaneously reported by the patient], and 1.5 hours postdose). Routine blood pressure (BP) readings were conducted at each treatment session, with elevations reported as AEs based on the clinician's judgement. The CADSS assessed treatment-emergent dissociative symptoms and consists of 23 questions, each coded on a 5-point scale (0=not at all, 1-mild, 2-moderate, 3=severe, 4-extreme), yielding a total score 0-92.11 A CADSS total score >4 indicated the presence of dissociative symptoms. The MOAA/S assessed treatment-emergent sedation: scores range from (=no response to painful stimulus to 5=readily responds to name spoken in normal tone. Any decrease in MOAA/s from pre-dose (score <5) indicated some degree of sedation. An abnormal elevation in BP was defined as systolic BP ≥180 mmHg and ≥20 mmHg higher than baseline and/or diastolic BP ≥105 mmHg and ≥15 mmHg greater than baseline.
as §1

## CN[C@]1(c2ccccc2Cl)CCCCC1=O [esketamine, (S)-2-(2-chlorophenyl)-2-(methylamino)cyclohexanone]
[1]; AE moderate in Week 1, Months 3-6
  clinician-reported dissociation mean recurrence severity score: 1.4
[1]; AE moderate in Week 1, Months 6-12
  clinician-reported dissociation mean recurrence severity score: 1.5
[1]; AE moderate in Week 1, Weeks 2-4
  clinician-reported dissociation mean recurrence severity score: 1.5
[1]; AE moderate in Week 1, Weeks 5-8
  clinician-reported dissociation mean recurrence severity score: 1.3
[1]; AE severe in Week 1, Months 3-6
  clinician-reported dissociation mean recurrence severity score: 1.2
[1]; AE severe in Week 1, Months 6-12
  clinician-reported dissociation mean recurrence severity score: 1.6
[1]; AE severe in Week 1, Weeks 2-4
  clinician-reported dissociation mean recurrence severity score: 1.5
[1]; AE severe in Week 1, Weeks 5-8
  clinician-reported dissociation mean recurrence severity score: 1.8
[1]; all clinician-reported AEs except dissociation, any observation period following Week 1 or 4
  patients with a severe recurrence: < 5 patients
[1]; clinician-reported AEs except dissociation, dizziness, vertigo and nausea, any observation period
  patients with a moderate recurrence: < 10 patients
[1]; initial incidence and recurrence
  reported severity of dissociation, dizziness, nausea, sedation, vertigo, increased blood pressure: mostly mild and rarely severe
[1]; no dissociation in Week 1, all timeframes
  clinician-reported dissociation mean recurrence severity score: 1.3
[1]; regardless of highest severity in Weeks 1 or 4
  severity of recurrences: mild to moderate
[2]; Months 3-6, AE once in Week 1
  Measured-based increased blood pressure: 6.3%
[2]; Months 3-6, AE twice in Week 1
  Measured-based increased blood pressure: 33.3%
[2]; Months 3-6, No AE in Week 1
  Measured-based increased blood pressure: 2.4%
[2]; Months 3-6, overall rate for timeframe
  Measured-based increased blood pressure: 2.7%
[2]; Months 6-12, AE once in Week 1
  Measured-based increased blood pressure: 6.3%
[2]; Months 6-12, AE twice in Week 1
  Measured-based increased blood pressure: 0%
[2]; Months 6-12, No AE in Week 1
  Measured-based increased blood pressure: 3.1%
[2]; Months 6-12, overall rate for timeframe
  Measured-based increased blood pressure: 3.2%
[2]; Week 1, overall rate for timeframe
  Measured-based increased blood pressure: 3.6%
[2]; Weeks 2-4, AE once in Week 1
  Measured-based increased blood pressure: 35.7%
[2]; Weeks 2-4, AE twice in Week 1
  Measured-based increased blood pressure: 80.0%
[2]; Weeks 2-4, No AE in Week 1
  Measured-based increased blood pressure: 3.4%
[2]; Weeks 2-4, overall rate for timeframe
  Measured-based increased blood pressure: 4.7%
[2]; Weeks 5-8, AE once in Week 1
  Measured-based increased blood pressure: 17.9%
[2]; Weeks 5-8, AE twice in Week 1
  Measured-based increased blood pressure: 60.0%
[2]; Weeks 5-8, No AE in Week 1
  Measured-based increased blood pressure: 2.6%
[2]; Weeks 5-8, overall rate for timeframe
  Measured-based increased blood pressure: 3.4%

Reference: patent US20240390295A1, “METHODS FOR TREATING DEPRESSION” (JANSSEN PHARMACEUTICA NV, priority 2020, published 2024)
